From patent US7090853B2, “Noscapine derivatives as adjuvant compositions and methods of use thereof” (Emory University, priority 1999, dated 2006)

Experiments:
EL4 thymocytes = experiment: M phase arrest, alpha-tubulin immunofluorescence and flow cytometry; format: cell-based; conditions: thymocyte cells, 20 μM Noscapine, 24 hr
Experimental: (§1) Hela cells were grown in DMEM supplemented with 10% fetal calf serum, 1 mM L-glutamine and 1% penicillin/−streptomycin. The tumor cell line E.G7-OVA (H-2^b) [Moore, M. W., et al., Cell 54,777 (1988)] was grown in RPMI 1640 with 10% fetal calf serum, 1% sodium pyruvate, 1 mM L-glutamine, 0.1% gentamycin, 50 μM β-mercaptoethanol. Cells were grown at 37° C. in a 5% CO2 atmosphere. Cell viability was assessed by trypan blue exclusion analysis. Cell numbers were determined using a hemacytometer. C57BL/6(H-2^b) mice, 8 to 12 weeks of age, were obtained from Harian Sprague Dawley, Inc. (Indiananapolis, Ind.). Mice were maintained on standard laboratory chow and water ad libitum in a temperature and light controlled environment. For immunofluorescence, both Hela and thymocyte cells were treated identically except the Hela cells were grown onto glass coverslips while EL4 thymocytes were put on glass coverslips after fixation. Cells in 10 ml medium were incubated with 2 μl DMSO or 20 μM Noscapine (2 μl 0.1 M DMSO solution) respectively. After 24 hr, cells were fixed with cold (−20° C.) methanol for 5 min., then rehydrated by PBS for 1 min. Nonspecific sites were blocked by incubating with 200 μl of 1% bovine serum albumin (BSA) in phosphate buffered saline (PBS) at 37° C. for 15 minutes. […] Cells were examined with a fluorescence microscope. […] The samples were read on a cytometer.

Hela cells = experiment: as above; format: cell-based; conditions: 20 μM Noscapine, 24 hr
Experimental: as §1

lymphocyte cells = experiment: Apoptosis: oligonucleosomal DNA fragmentation, DAPI staining and nick end labeling; format: cell-based; conditions: 20 μM Noscapine, 0 to 24 hr
Experimental: Oligonucleosomal fragmentation of genomic DNA was determined according to Walton, M. I. et. al., Cancer. Res. 53, 1853 (1993). An aliquot of 3.3×10^6 cells in 10 ml medium was incubated with 20 μM Noscapine ([…] DMSO solution) for different time periods ranging from 0 to 24 hr. At the end of incubation, cells were pelleted and washed twice with ice cold PBS, and lysed in 250 μl 1% (v/v) NP 40 detergent containing 0.5 mg/ml proteinase K in PBS solution on ice for 60 min. Samples were centrifuged, and the supernatants were removed and incubated with 5 μl 10 mg/ml RNase A at 37° C. for 40 min. An aliquot of 1 ml anhydrous ethanol was added, tubes were placed at −20° C. for 20 min., then centrifuged to pellet DNA. After the samples were dry, the same amount of DNA (10 μg) was electrophoresed at 80V for 3 hr. through a 2% agarose gel containing ethidium bromide in TAB buffer. DNA bands were visualized under […]. […]
Morphological changes in the nuclear chromatin of cells undergoing apoptosis were detected by staining with 4′,6-diamidino-2-phenylindole (DAPI). […] Following 15 min. incubation at room temperature, a 10 μl aliquot was placed on a glass slide, and 400 cells per slide were scored for the incidence of apoptotic chromatin changes with a fluorescence microscope. […] After the slides were rinsed with PBS for another 3 times, coverslips were mounted and analyzed with a light microscope.

OVA = experiment: Immune response to OVA in CFA in mice on oral noscapine; format: in vivo, B6 mice
Experimental: On day 0 all mice were injected with 200 μg OVA in CFA in the foot pad. Mice were bled individually on day 18 and their sera tested for antibody to OVA by ELISA (FIG. 5A). The mice were sacrificed on day 21 and their spleen cells cultured with E.G7-OVA for 6 days and their cytolytic activity measured with ^51Cr labeled cells (FIG. 5B).
The inventors believe that the damage caused to the mitotic apparatus of dividing cells must be repaired by normal cells but not the tumor cells at the tumor suppressive doses. Alternatively, the tumor suppressive effects of Noscapine may be unrelated to the anti-mitotic effect of the drug.

human breast tumors = conditions: nude mice; cited from earlier work
human bladder tumors = conditions: nude mice; cited from earlier work

COc1ccc2c(c1OC)C(=O)O[C@@H]2[C@H]1c2c(cc3c(c2OC)OCO3)CCN1C [Noscapine]
M phase arrest of microtubule arrays (EL4 thymocytes): arrested in M phase
M phase arrest of microtubule arrays (Hela cells): arrested in M phase
DNA degradation (gel electrophoresis of fragmented genomic DNA, staining) (lymphocyte cells): progressive DNA degradation with increasing time of noscapine treatment
immune response to OVA in CFA (OVA; 1.5 mg noscapine/ml drinking water from day -7): no detectable adverse effect
primary antibody response (OVA; oral noscapine, ELISA day 18): did not inhibit
CTL response (OVA; oral noscapine, spleen cells day 21, 51Cr labeled cells): did not inhibit
regression of human breast tumors (human breast tumors): caused regression
regression of human bladder tumors (human bladder tumors): caused regression
